From patent publication US11319315B2, “Cyclohexyl acid triazole azoles as LPA antagonists” (BRISTOL-MYERS SQUIBB COMPANY, priority 2017, dated 2022)

Target: T1, human LPA1 (Homo sapiens, UniProt Q92633)
T1 construct: expressed in transfected cells; host or cells: Chinese hamster ovary (CHO) cells
Test: LPA1 functional antagonist assay (LPA-induced calcium flux in CHO cells overexpressing human LPA1)
Assay type: cell-based
Conditions: inhibition of calcium flux induced by 10 nM LPA, CHO cells overexpressing human LPA1; read-out: hLPA1 IC50
Protocol: The effectiveness of compounds of the present invention as LPA1 inhibitors can be determined in an LPA1 functional antagonist assay as follows:
Chinese hamster ovary cells overexpressing human LPA1 were plated overnight (15,000 cells/well) in poly-D-lysine coated 384-well microplates (Greiner bio-one, Cat #781946) in DMEM/F12 medium (Gibco, Cat #11039). Following overnight culture, cells were loaded with calcium indicator dye (AAT Bioquest Inc, Cat #34601) for 30 minutes at 37° C. The cells were then equilibrated to room temperature for 30 minutes before the assay. Test compounds solubilized in DMSO were transferred to 384 well non-binding surface plates (Corning, Cat #3575) using the Labcyte Echo acoustic dispense and diluted with assay buffer [IX HBSS with calcium/magnesium (Gibco Cat #14025-092), 20 mM HEPES (Gibco Cat #15630-080) and 0.1% fatty acid free BSA (Sigma Cat #A9205)] to a final concentration of 0.5% DMSO. Diluted compounds were added to the cells by FDSS6000 (Hamamatsu) at final concentrations ranging from 0.08 nM to 5 μM. and were then incubated for 20 min at room temperature at which time LPA (Avanti Polar Lipids Cat #857130C) was added at final concentrations of 10 nM to stimulate the cells. The compound IC50 value was defined as the concentration of test compound which inhibited 50% of the calcium flux induced by LPA alone. IC50 values were determined by fitting data to a 4-parameter logistic equation (GraphPad Prism, San Diego Calif.).

T1 sequence (Q92633 whole entry): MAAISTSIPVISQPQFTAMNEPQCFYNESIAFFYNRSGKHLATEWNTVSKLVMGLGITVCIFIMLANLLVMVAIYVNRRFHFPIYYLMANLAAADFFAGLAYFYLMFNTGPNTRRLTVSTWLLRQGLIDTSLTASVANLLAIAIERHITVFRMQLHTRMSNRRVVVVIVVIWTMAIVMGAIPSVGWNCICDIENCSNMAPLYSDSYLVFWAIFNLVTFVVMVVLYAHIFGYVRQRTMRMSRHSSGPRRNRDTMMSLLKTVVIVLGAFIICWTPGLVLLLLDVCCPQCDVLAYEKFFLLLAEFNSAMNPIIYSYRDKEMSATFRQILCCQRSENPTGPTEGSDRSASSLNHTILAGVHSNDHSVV

| Compound | IC50 |
| --- | --- |
| CCC(OC)c1nc(NCc2c(-c3ccc(O[C@H]4CCC[C@H](C(=O)O)C4)c(C)n3)nnn2C)no1 (mixture of isomers) [Example 217, (1S,3S)-3-((6-(5-(((5-(1-methoxy-propyl)-1,2,4-oxadiazol-3-yl)amino)methyl)-1-methyl-1H-1,2,3-triazol-4-yl)-2-methylpyridin-3-yl)oxy) cyclo-hexane-1-carboxylic acid] | 84 nM |
| CCCOC(C)c1nc(NCc2c(-c3ccc(O[C@H]4CCC[C@H](C(=O)O)C4)c(C)n3)nnn2C)no1 (mixture of isomers) [Example 218, (1S,3S)-3-((2-methyl-6-(1-methyl-5-(((5-(1-propoxyethyl)-1,2,4-oxadiazol-3-yl)amino)methyl)-1H-1,2,3-triazol-4-yl)pyridin-3-yl)oxy)cyclohexane-1-carboxylic acid] | 35 nM |
| Cc1nc(-c2nnn(C)c2CNc2noc(C3CCCO3)n2)ccc1O[C@H]1CCC[C@H](C(=O)O)C1 (mixture of isomers) [Example 221, (1S,3S)-3-((2-methyl-6-(1-methyl-5-(((5-(tetrahydrofuran-2-yl)-1,2,4-oxadiazol-3-yl)amino)methyl)-1H-1,2,3-triazol-4-yl)pyridin-3-yl)oxy) cyclohexane-1-carboxylic acid] | 221 nM |
| Cc1nc(-c2nnn(C)c2CNc2noc(C(C)OC3CC3)n2)ccc1O[C@H]1CCC[C@H](C(=O)O)C1 (mixture of isomers) [Example 226, (1S,3S)-3-((6-(5-(((5-(1-cyclopro-poxyethyl)-1,2,4-oxadiazol-3-yl)amino)methyl)-1-methyl-1H-1,2,3-triazol-4-yl)-2-methylpyridin-3-yl)oxy)cyclohexane-1-carboxylic acid] | 123 nM |
| Cc1nc(-c2nnn(C)c2Cc2noc(C(C)C3CC3)n2)ccc1O[C@H]1CCC[C@H](C(=O)O)C1 (mixture of isomers) [Example 239, (1S,3S)-3-((6-(5-((5-(1-cyclopropyl-ethyl)-1,2,4-oxadiazol-3-yl)methyl)-1-methyl-1H-1,2,3-triazol-4-yl)-2-methylpyridin-3-yl)oxy)cyclohexane-1-carboxylic acid] | 28 nM |
| CCC(C)Cc1nc(NCc2c(-c3ccc(O[C@H]4CCC[C@H](C(=O)O)C4)cn3)nnn2C)no1 (mixture of isomers) [Example 290, (1S,3S)-3-((6-(1-methyl-5-(((5-(2-methylbutyl)-1,2,4-oxadiazol-3-yl)amino)methyl)-1H-1,2,3-triazol-4-yl)pyridin-3-yl)oxy)cyclohexane-1-carboxylic acid, racemate] | 37.3 nM |
| CCCC(C)c1nc(NCc2c(-c3ccc(O[C@H]4CCC[C@H](C(=O)O)C4)cn3)nnn2C)no1 (mixture of isomers) [Example 291, (1S,3S)-3-((6-(1-methyl-5-(((5-(pentan-2-yl)-1,2,4-oxadiazol-3-yl)amino)methyl)-1H-1,2,3-triazol-4-yl)pyridin-3-yl)oxy)cyclohexane-1-carboxylic acid, racemate] | 59.4 nM |
| CC[C@@H](OC)c1nc(NCc2c(-c3ccc(O[C@H]4CCC[C@H](C(=O)O)C4)c(C)n3)nnn2C)no1 (single isomer, unassigned) [Example 215] | 154 nM |
| Cc1nc(-c2nnn(C)c2CNc2nsc(C3CC3)n2)ccc1O[C@H]1CCC[C@H](C(=O)O)C1 [Example 1, (1 S,3 S)-3-((6-(5-(((5-Cyclopropyl-1,2,4-thiadiazol-3-yl)amino)methyl)-1-methyl-1H-1,2,3-triazol-4-yl)-2-methylpyridin-3-yl)oxy)cyclohexane-1-carboxylic acid] | 1180 nM |
| Cc1nc(-c2nnn(C)c2CNc2nsc(-c3ccccc3)n2)ccc1O[C@H]1CCC[C@H](C(=O)O)C1 [Example 6] | 18 nM |
| Cc1nc(-c2nnn(C)c2CNc2nc(-c3ccccc3)ns2)ccc1O[C@H]1CCC[C@H](C(=O)O)C1 [Example 9] | 38 nM |
| Cc1nc(-c2nnn(C)c2CNc2nc(C3CCC3)cs2)ccc1O[C@H]1CCC[C@H](C(=O)O)C1 [Example 13] | 13 nM |
| Cc1nc(-c2nnn(C)c2CNc2nc(-c3ccccc3)cs2)ccc1O[C@H]1CCC[C@H](C(=O)O)C1 [Example 14] | 130 nM |
| Cc1nc(-c2nnn(C)c2CNc2ncc(-c3ccccc3)s2)ccc1O[C@H]1CCC[C@H](C(=O)O)C1 [Example 16] | 67 nM |
| Cc1nc(-c2nnn(C)c2CNc2nc3c(s2)CCCC3)ccc1O[C@H]1CCC[C@H](C(=O)O)C1 [Example 17] | 1200 nM |
| Cc1nc(-c2nnn(C)c2CNc2nc(-c3ccccc3)c(C)s2)ccc1O[C@H]1CCC[C@H](C(=O)O)C1 [Example 18] | 15 nM |
| Cc1nc(-c2nnn(C)c2CNc2ncc(-c3ccccn3)o2)ccc1O[C@H]1CCC[C@H](C(=O)O)C1 [Example 20] | 99 nM |
| Cc1nc(-c2nnn(C)c2CNc2nc(-c3ccccc3)c(F)s2)ccc1O[C@H]1CCC[C@H](C(=O)O)C1 [Example 21, (1 S,3 S)-3-((6-(5-(((5-fluoro-4-phenylthiazol-2-yl)amino)methyl)-1-methyl-1H-1,2,3-triazol-4-yl)-2-methylpyridin-3-yl)oxy)cyclohexane-1-carboxylic acid] | 18 nM |

Second part, the compound after the results:

| IC50 | Compound |
| --- | --- |
| 92 nM | CCOC(C)c1nc(NCc2c(-c3ccc(O[C@H]4CCC[C@H](C(=O)O)C4)c(C)n3)nnn2C)no1 (mixture of isomers) [Example 222, (1S,3S)-3-((6-(5-(((5-(1-ethoxyethyl)-1,2,4-oxadiazol-3-yl)amino)methyl)-1-methyl-1H-1,2,3-triazol-4-yl)-2-methylpyridin-3-yl)oxy)cyclohexane-1-carboxylic acid] |
| 466 nM | COC(C)c1nc(NCc2c(-c3ccc(O[C@H]4CCC[C@H](C(=O)O)C4)c(C)n3)nnn2C)no1 (mixture of isomers) [Example 223, (1S,3S)-3-((6-(5-(((5-(1-methoxy-ethyl)-1,2,4-oxadiazol-3-yl)amino)methyl)-1-methyl-1H-1,2,3-triazol-4-yl)-2-methylpyridin-3-yl)oxy)cyclo-hexane-1-carboxylic acid] |
| 121 nM | CC[C@@H](OC)c1nc(NCc2c(-c3ccc(O[C@H]4CCC[C@H](C(=O)O)C4)c(C)n3)nnn2C)no1 (single isomer, unassigned) [Example 216] |
| 185 nM | CCCc1nnc(NCc2c(-c3ccc(O[C@H]4CCC[C@H](C(=O)O)C4)c(C)n3)nnn2C)s1 [Example 2, (1 S,3S)-3-((2-Methyl-6-(1-methyl-5-(((5-propyl-1,3,4-thiadiazol-2-yl)amino)methyl)-1H-1,2,3-triazol-4-yl)pyridin-3-yl)oxy)cyclohexanecarboxylic acid] |
| 236 nM | Cc1nc(-c2nnn(C)c2CNc2nc(C(C)(C)C)ns2)ccc1O[C@H]1CCC[C@H](C(=O)O)C1 [Example 3, (1 S,3 S)-3-((6-(5-(((3-(tert-Butyl)-1,2,4-thiadiazol-5-yl)amino)methyl)-1-methyl-1H-1,2,3-triazol-4-yl)-2-methylpyridin-3-yl)oxy)cyclohexanecarboxylic acid] |
| 1120 nM | COc1nc(NCc2c(-c3ccc(O[C@H]4CCC[C@H](C(=O)O)C4)c(C)n3)nnn2C)ns1 [Example 4] |
| 28 nM | CCOc1nc(NCc2c(-c3ccc(O[C@H]4CCC[C@H](C(=O)O)C4)c(C)n3)nnn2C)ns1 [Example 5] |
| 2240 nM | Cc1nc(-c2nnn(C)c2CNc2nnc(C3CC3)s2)ccc1O[C@H]1CCC[C@H](C(=O)O)C1 [Example 7] |
| 455 nM | Cc1nc(-c2nnn(C)c2CNc2nnc(CC(C)C)s2)ccc1O[C@H]1CCC[C@H](C(=O)O)C1 [Example 8] |
| 71 nM | Cc1nc(-c2nnn(C)c2CNc2nc(C(C)C)ns2)ccc1O[C@H]1CCC[C@H](C(=O)O)C1 [Example 10] |
| 705 nM | CCCn1cc(NCc2c(-c3ccc(O[C@H]4CCC[C@H](C(=O)O)C4)c(C)n3)nnn2C)nn1 [Example 11] |
| 745 nM | Cc1nc(-c2nnn(C)c2CNc2nc(C(C)C)cs2)ccc1O[C@H]1CCC[C@H](C(=O)O)C1 [Example 12] |
| 55 nM | Cc1nc(-c2nnn(C)c2CNc2ncc(C(C)C)s2)ccc1O[C@H]1CCC[C@H](C(=O)O)C1 [Example 15] |
| 106 nM | CCc1cnc(NCc2c(-c3ccc(O[C@H]4CCC[C@H](C(=O)O)C4)c(C)n3)nnn2C)o1 [Example 19] |
| 42 nM | Cc1nc(-c2nnn(C)c2CNc2cnn(CC(C)C)n2)ccc1O[C@H]1CCC[C@H](C(=O)O)C1 [Example 22, (1 S,3 S)-3-((6-(5-(((2-isobutyl-2H-1,2,3-triazol-4-yl)amino)methyl)-1-methyl-1H-1,2,3-triazol-4-yl)-2-methylpyridin-3-yl)oxy)cyclohexane-1-carboxylic acid] |
| 435 nM | Cc1nc(-c2nnn(C)c2CNc2cn(CC(C)C)nn2)ccc1O[C@H]1CCC[C@H](C(=O)O)C1 [Example 23, (1 S,3 S)-3-((6-(5-(((1-isobutyl-1H-1,2,3-triazol-4-yl)amino)methyl)-1-methyl-1H-1,2,3-triazol-4-yl)-2-methylpyridin-3-yl)oxy)cyclohexane-1-carboxylic acid] |
